Source: ChEMBL document CHEMBL1130878 (Bioorg Med Chem Lett, 1998)

Assays:
Endothelin-1 receptor = target: T1, Endothelin-1 receptor (Rattus norvegicus, UniProt P26684); test: In vitro ability to inhibit specific [125I]ET1 binding to rat aorta membranes Endothelin A receptor; type: tissue-based
T1 sequence (P26684 whole entry): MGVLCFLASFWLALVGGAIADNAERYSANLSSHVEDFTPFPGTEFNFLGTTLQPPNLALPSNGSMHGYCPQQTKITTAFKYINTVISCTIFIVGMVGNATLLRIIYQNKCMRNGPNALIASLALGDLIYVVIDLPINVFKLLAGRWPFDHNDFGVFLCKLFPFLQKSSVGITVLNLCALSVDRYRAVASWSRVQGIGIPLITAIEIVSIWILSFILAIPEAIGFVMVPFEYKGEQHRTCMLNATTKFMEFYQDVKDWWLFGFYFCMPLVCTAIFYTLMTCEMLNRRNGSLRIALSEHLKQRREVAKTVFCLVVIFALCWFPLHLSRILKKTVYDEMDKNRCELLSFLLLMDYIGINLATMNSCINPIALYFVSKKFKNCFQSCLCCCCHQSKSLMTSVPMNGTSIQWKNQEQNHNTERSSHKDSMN

[1] = target: T2, Endothelin receptor type B (Sus scrofa, UniProt P35463); test: In vitro ability to inhibit specific [125I]ET1 binding to porcine kidney (inner medulla) membranes Endothelin B receptor
T2 sequence (P35463 whole entry): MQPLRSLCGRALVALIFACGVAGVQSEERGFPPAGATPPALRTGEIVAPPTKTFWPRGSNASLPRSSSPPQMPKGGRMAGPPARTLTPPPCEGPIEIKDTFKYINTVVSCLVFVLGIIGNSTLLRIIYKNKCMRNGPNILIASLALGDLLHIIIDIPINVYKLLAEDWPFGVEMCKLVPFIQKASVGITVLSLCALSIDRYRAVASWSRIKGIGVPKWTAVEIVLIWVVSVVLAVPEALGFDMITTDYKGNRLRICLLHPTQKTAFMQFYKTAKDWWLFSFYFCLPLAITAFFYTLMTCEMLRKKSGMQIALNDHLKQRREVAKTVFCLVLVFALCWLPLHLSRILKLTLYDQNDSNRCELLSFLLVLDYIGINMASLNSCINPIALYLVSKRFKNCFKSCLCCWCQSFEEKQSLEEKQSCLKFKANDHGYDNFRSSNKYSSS

IC50 (Endothelin-1 receptor) [nM]	IC50 [1] [nM]	SMILES
3	–	COc1ccc(C(=O)/C(Cc2cc(OC)c(OC)c(OC)c2)=C(\C(=O)O)c2ccc3nsnc3c2)c(F)c1
3.4	1400	COc1ccc(C(=O)/C(Cc2ccc3c(c2)CCO3)=C(\C(=O)O)c2ccc3nsnc3c2)cc1
57	220	COc1ccc(C(=O)/C(Cc2cc(OC(C)C)c(OC(C)C)c(OC(C)C)c2)=C(\C(=O)O)c2ccc3nsnc3c2)cc1
